In the assay the test system is Gli1-mediated transcription. The assay can be described thus: Gli1-mediated transcriptional luciferase reporter assay. The assay is classed as cell-based. The method, then:
Gli1-mediated transcriptional luciferase reporter assay was performed using Shh-LIGHT2 cells in order to evaluate the effects on activation and inhibition of Gli1-mediated transcription by the compounds of the disclosure. Brief assay procedure is provided below. […] Shh-LIGHT2 cells were harvested from about 80% confluent 10-cm dish using 0.25% Trypsin-EDTA solution. Medium was removed, and cells were washed with 5 mL DPBS and aspirated. Then, 1 mL 0.25% Trypsin-EDTA solution was added to a 10-cm dish. The dish was placed in the incubator for 1-3 minutes, or until cells have detached. 3 mL of cell growth medium (DMEM, 10% FBS, 1% PenStrep, 1% sodium pyruvate, and 1% GlutaMax) was added to the 10-cm dish, and the contents were transferred to a conical tube. […] The cell assay plate was removed from incubator after cells reached confluency. The culture medium was then manually removed from the cell plates, and the plates were centrifuged at 200 rpm for 30 seconds. […] After 30 min incubation of antagonist, cells were stimulated with agonist (purmorphamine, 5 μL, 1.5 μM final), then incubate for 24 h at 37° C./5% CO2. […] Luciferase assay: After incubation, the cell assay plate was allowed to acclimate to room temperature. Then, 20 μL of Duo-Glo® Luciferase Reagent (Promega) was added to each well of cell assay plate. The plate was briefly spun down, mixed, and incubated for 30 minutes at room temperature. The cell plate was read using luminometer for firefly luminescence activity. Then, 20 μL of Duo-Glo® Step&Glo® Reagent (Promega) was added to each well of cell assay plate. The plate was briefly spun down, mixed, and incubated for 30 minutes at room temperature. The cell plate was read using luminometer for Renilla luminescence activity. Ratio of firefly: Renilla luminescence was calculated for each well. The compound well ratio was normalized to the ratio from a control well.
(Reporter assays use an easily measured gene product as a stand-in for the process of interest.)

[1] abbreviates: Shh-LIGHT2 cells, antagonist mode, purmorphamine 1.5 μM stimulation, 24 h, firefly luminescence, read-out: Gli1 IC50 firefly.
Setting [2] is: Shh-LIGHT2 cells, antagonist mode, purmorphamine 1.5 μM stimulation, 24 h, ratio of firefly:Renilla luminescence, read-out: Gli1 IC50 firefly:Renilla ratio.

In patent US12209092B2, “Inhibitors of GLI1 as therapeutic agents” (NEW YORK UNIVERSITY, priority 2018, dated 2025) one finds IC50 data, which are given here for 21 molecules.

Like-named read-outs stand apart in the source and are kept apart here.

As to `Clc1ccccc1-c1nc2c([nH]1)CN(C1Cc3cccc(Cl)c3C1)CC2` (racemic) [Example 12, 5-(4-chloro-2,3-dihydro-1H-inden-2-yl)-2-(2-chlorophenyl)-4,5,6,7-tetrahydro-3H-imidazo[4,5-c]pyridine], the IC50 under setting [1] lay in the range of 100 to 490 nM and the IC50 under setting [2] is 100 to 490 nM.
With `O[C@H]1c2cc(Cl)ccc2C[C@@H]1N1CCc2nc(-c3ccccc3Cl)[nH]c2C1` (relative stereo) [Example 99, trans-6-chloro-2-(2-(2-chlorophenyl)-3,4,6,7-tetrahydro-5H-imidazo[4,5-c]pyridin-5-yl)-2,3-dihydro-1H-inden-1-ol], the IC50 runs as follows: under setting [1], 1000 to 50000 nM; under setting [2], 1000 to 50000 nM.
Turning to `Clc1ccccc1-c1nc2c([nH]1)CN(C1CCc3cccc(Cl)c3C1)CC2` (stereo not drawn) [Example 1, 5-(8-chloro-1,2,3,4-tetrahydronaphthalen-2-yl)-2-(2-chlorophenyl)-4,5,6,7-tetrahydro-3H-imidazo[4,5-c]pyridine], the IC50 by setting is: under setting [1], under 100 nM; under setting [2], 100 to 490 nM.
For `Clc1ccccc1-c1nc2c([nH]1)CN([C@@H]1CCc3cccc(Cl)c3C1)CC2` [Example 1-R, (R)-5-(8-chloro-1,2,3,4-tetrahydronaphthalen-2-yl)-2-(2-chlorophenyl)-4,5,6,7-tetrahydro-3H-imidazo[4,5-c]pyridine], in that order: 100 to 490 nM and 100 to 490 nM.
As to `Clc1ccccc1-c1nc2c([nH]1)CN([C@H]1CCc3cccc(Cl)c3C1)CC2` [Example 1-S, (S)-5-(8-chloro-1,2,3,4-tetrahydronaphthalen-2-yl)-2-(2-chlorophenyl)-4,5,6,7-tetrahydro-3H-imidazo[4,5-c]pyridine], the IC50 lay within 100 to 490 nM under setting [1] and 100 to 490 nM under setting [2].
Regarding `Clc1ccccc1-c1nc2c([nH]1)CN(C1Cc3ccccc3C1)CC2` [Example 2, 2-(2-chlorophenyl)-5-(2,3-dihydro-1H-inden-2-yl)-4,5,6,7-tetrahydro-3H-imidazo[4,5-c]pyridine], the IC50 (Shh Light2, 24 h, read-out: Gli1 IC50 firefly) was in the range of 1000 to 50000 nM and the IC50 (Shh Light2, 24 h, read-out: Gli1 IC50 firefly:Renilla ratio) fell in the range of 1000 to 50000 nM.
`Clc1ccc2c(c1)CC(N1CCc3nc(-c4ccccc4Cl)[nH]c3C1)CO2` (stereo not drawn) [Example 3, 5-(6-chlorochroman-3-yl)-2-(2-chlorophenyl)-4,5,6,7-tetrahydro-3H-imidazo[4,5-c]pyridine]: the IC50 is, setting by setting: under setting [1], 500 to 990 nM; under setting [2], 500 to 990 nM.
Regarding `COc1cccc(-c2nc3c([nH]2)CN(C2CCc4ccc(OC)cc4C2)CC3)c1` (stereo not drawn) [Example 4, 5-(7-methoxy-1,2,3,4-tetrahydronaphthalen-2-yl)-2-(3-methoxyphenyl)-4,5,6,7-tetrahydro-3H-imidazo [4,5-c]pyridine], the IC50 was 500 to 990 nM under setting [1] and 1000 to 50000 nM under setting [2].
Turning to `Fc1ccc2c(c1)CC(N1CCc3nc(-c4ccccc4F)[nH]c3C1)CC2` (stereo not drawn) [Example 5, 5-(7-fluoro-1,2,3,4-tetrahydronaphthalen-2-yl)-2-(2-fluorophenyl)-4,5,6,7-tetrahydro-3H-imidazo[4,5-c]pyridine], the IC50 lay within 1000 to 50000 nM under setting [1] and 1000 to 50000 nM under setting [2].
Regarding `Fc1ccccc1-c1nc2c([nH]1)CN(C1CCc3ccc(Cl)cc3C1)CC2` (stereo not drawn) [Example 6, 5-(7-chloro-1,2,3,4-tetrahydronaphthalen-2-yl)-2-(2-fluorophenyl)-4,5,6,7-tetrahydro-3H-imidazo[4,5-c]pyridine], the IC50 under setting [1] was 1000 to 50000 nM and the IC50 under setting [2] fell in the range of 1000 to 50000 nM.
For `COc1ccc2c(c1)CCC(N1CCc3nc(-c4ccccc4F)[nH]c3C1)C2` (stereo not drawn) [Example 7, 2-(2-fluorophenyl)-5-(6-methoxy-1,2,3,4-tetrahydronaphthalen-2-yl)-4,5,6,7-tetrahydro-3H-imidazo[4,5-c]pyridine], the IC50 is, setting by setting: under setting [1], 1000 to 50000 nM; under setting [2], 1000 to 50000 nM.
In the case of `COc1ccc2c(c1)CC(N1CCc3nc(-c4ccccc4F)[nH]c3C1)CC2` (stereo not drawn) [Example 8, 2-(2-fluorophenyl)-5-(7-methoxy-1,2,3,4-tetrahydronaphthalen-2-yl)-4,5,6,7-tetrahydro-3H-imidazo[4,5-c]pyridine], the IC50 reads like this: under setting [1], 1000 to 50000 nM; under setting [2], 1000 to 50000 nM.
In the case of `COc1cccc2c1CC(N1CCc3nc(-c4ccccc4F)[nH]c3C1)CC2` (stereo not drawn) [Example 9, 2-(2-fluorophenyl)-5-(8-methoxy-1,2,3,4-tetrahydronaphthalen-2-yl)-4,5,6,7-tetrahydro-3H-imidazo[4,5-c]pyridine], the IC50 reads like this: under setting [1], 500 to 990 nM; under setting [2], 1000 to 50000 nM.
For `COc1cccc2c1CCC(N1CCc3nc(-c4ccccc4Cl)[nH]c3C1)C2` (stereo not drawn) [Example 10, 2-(2-chlorophenyl)-5-(5-methoxy-1,2,3,4-tetrahydronaphthalen-2-yl)-4,5,6,7-tetrahydro-3H-imidazo[4,5-c]pyridine], in that order: 100 to 490 nM and 100 to 490 nM.
Turning to `Fc1ccccc1-c1nc2c([nH]1)CN(C1CCc3cccc(F)c3C1)CC2` (stereo not drawn) [Example 11, 5-(8-fluoro-1,2,3,4-tetrahydronaphthalen-2-yl)-2-(2-fluorophenyl)-4,5,6,7-tetrahydro-3H-imidazo[4,5-c]pyridine], the IC50 under setting [1] fell in the range of 1000 to 50000 nM and the IC50 under setting [2] lay in the range of 1000 to 50000 nM.
Regarding `Clc1ccc2c(c1)CC(N1CCc3nc(-c4ccccc4Cl)[nH]c3C1)CC2` (stereo not drawn) [Example 13, 5-(7-chloro-1,2,3,4-tetrahydronaphthalen-2-yl)-2-(2-chlorophenyl)-4,5,6,7-tetrahydro-3H-imidazo[4,5-c]pyridine], the IC50 by setting is: under setting [1], 100 to 490 nM; under setting [2], 100 to 490 nM.
In the case of `OC1c2c(Cl)cccc2CCC1N1CCc2nc(-c3ccccc3Cl)[nH]c2C1` (stereo not drawn) [Example 14, 8-chloro-2-(2-(2-chlorophenyl)-3,4,6,7-tetrahydro-5H-imidazo[4,5-c]pyridin-5-yl)-1,2,3,4-tetrahydronaphthalen-1-ol], the IC50 lay within 1000 to 50000 nM under setting [1] and 1000 to 50000 nM under setting [2].
For `COc1ccc2c(c1)CC(N1CCc3nc(-c4ccccc4Cl)[nH]c3C1)CC2` (stereo not drawn) [Example 15, 2-(2-chlorophenyl)-5-(7-methoxy-1,2,3,4-tetrahydronaphthalen-2-yl)-4,5,6,7-tetrahydro-3H-imidazo[4,5-c]pyridine], the IC50 runs as follows: under setting [1], 100 to 490 nM; under setting [2], 100 to 490 nM.
Consider `COc1cccc2c1CC(N1CCc3nc(-c4ccccc4Cl)[nH]c3C1)CC2` (stereo not drawn) [Example 16, 2-(2-chlorophenyl)-5-(8-methoxy-1,2,3,4-tetrahydronaphthalen-2-yl)-4,5,6,7-tetrahydro-3H-imidazo[4,5-c]pyridine], for which the IC50 under setting [1] was under 100 nM and the IC50 under setting [2] fell in the range of 100 to 490 nM.
As for `Clc1cnccc1-c1nc2c([nH]1)CN(C1CCc3cccc(Cl)c3C1)CC2` (stereo not drawn) [Example 17, 5-(8-chloro-1,2,3,4-tetrahydronaphthalen-2-yl)-2-(3-chloropyridin-4-yl)-4,5,6,7-tetrahydro-3H-imidazo[4,5-c]pyridine], the IC50 is, setting by setting: under setting [1], 500 to 990 nM; under setting [2], 1000 to 50000 nM.
`Cn1c(-c2ccccc2Cl)nc2c1CN(C1CCc3cccc(Cl)c3C1)CC2` (stereo not drawn) [Example 18, 5-(8-chloro-1,2,3,4-tetrahydronaphthalen-2-yl)-2-(2-chlorophenyl)-3-methyl-4,5,6,7-tetrahydro-3H-imidazo[4,5-c]pyridine]: the IC50 under setting [1] lay within 1000 to 50000 nM and the IC50 under setting [2] lay in the range of 1000 to 50000 nM.
